Data: ChEMBL document CHEMBL1201862, “PubChem BioAssay data set” (2004)
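Tested at 5 concentrations; 48 h exposure; 96-well plates; endpoints linearly interpolated, else capped at highest concentration. The concentration for 50% growth inhibition is given as GI50.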 Active and inactive are the calls of the source. Cut-off read from the data, not from the text of the source: active = GI50 up to about 1.1 µM and inactive = higher.

Legend:
Assay in all cases: NCI-60 cell line screen, 48 h
TK-10 = system: TK-10
A498 = system: A498
Malme-3M = system: Malme-3M
HCT-15 = system: HCT-15
EKVX = system: EKVX
NCI/ADR-RES = system: NCI/ADR-RES
ACHN = system: ACHN
SNB-19 = system: SNB-19
MDA-N = system: MDA-N
SK-OV-3 = system: SK-OV-3
HCC 2998 = system: HCC 2998
COLO 205 = system: COLO 205
SF-295 = system: SF-295
RXF 393 = system: RXF 393
SR = system: SR
Hs-578T = system: Hs-578T
UO-31 = system: UO-31
IGROV-1 = system: IGROV-1
A549 = system: A549
MOLT-4 = system: MOLT-4
786-0 = system: 786-0
HOP-62 = system: HOP-62
NCI-H226 = system: NCI-H226
K562 = system: K562
SW-620 = system: SW-620
OVCAR-3 = system: OVCAR-3
NCI-H460 = system: NCI-H460
RPMI-8226 = system: RPMI-8226
SK-MEL-28 = system: SK-MEL-28
MDA-MB-435 = system: MDA-MB-435
KM12 = system: KM12
U-251 = system: U-251
NCI-H23 = system: NCI-H23
HL-60 = system: HL-60
OVCAR-5 = system: OVCAR-5
DU-145 = system: DU-145
LOX IMVI = system: LOX IMVI
SK-MEL-5 = system: SK-MEL-5
OVCAR-4 = system: OVCAR-4
MDA-MB-231 = system: MDA-MB-231
SN12C = system: SN12C
HCT-116 = system: HCT-116
SK-MEL-2 = system: SK-MEL-2
CAKI-1 = system: CAKI-1
OVCAR-8 = system: OVCAR-8
M14 = system: M14
BT-549 = system: BT-549
MCF7 = system: MCF7
SF-539 = system: SF-539
HOP-92 = system: HOP-92
UACC-257 = system: UACC-257
CCRF-CEM = system: CCRF-CEM
HT-29 = system: HT-29
PC-3 = system: PC-3
NCI-H522 = system: NCI-H522
T47D = system: T47D
SF-268 = system: SF-268
UACC-62 = system: UACC-62
SNB-75 = system: SNB-75

CC(=O)OCCOCCN1CCN(C2=C(Cl)C(=O)c3c(O)ccc(O)c3C2=O)CC1
GI50 (TK-10): 460 nM (active) | GI50 (A498): 1.86 µM (inactive) | GI50 (Malme-3M): 318 nM (active) | GI50 (HCT-15): 365 nM | GI50 (EKVX): 1.67 µM (inactive) | GI50 (NCI/ADR-RES): 296 nM (active) | GI50 (ACHN): 286 nM (active) | GI50 (SNB-19): 3.04 µM (inactive) | GI50 (MDA-N): 0.497 µM (active) | GI50 (SK-OV-3): 3.66 µM (inactive) | GI50 (HCC 2998): 2.37 µM (inactive) | GI50 (COLO 205): 231 nM (active) | GI50 (SF-295): 1.93 µM (inactive) | GI50 (RXF 393): 690 nM (active) | GI50 (SR): 44.4 nM (active) | GI50 (Hs-578T): 3.1 µM (inactive) | GI50 (UO-31): 1.22 µM (inactive) | GI50 (IGROV-1): 1.55 µM (inactive) | GI50 (A549): 2.1 µM (inactive) | GI50 (MOLT-4): 165 nM (active) | GI50 (786-0): 326 nM (active) | GI50 (HOP-62): 3.04 µM (inactive) | GI50 (NCI-H226): 2.89 µM (inactive) | GI50 (K562): 264 nM (active) | GI50 (SW-620): 179 nM (active) | GI50 (OVCAR-3): 723 nM (active) | GI50 (NCI-H460): 4.9 µM (inactive) | GI50 (RPMI-8226): 249 nM (active) | GI50 (SK-MEL-28): 1.04 µM (active) | GI50 (MDA-MB-435): 0.71 µM (active) | GI50 (KM12): 2.15 µM (inactive) | GI50 (U-251): 2.13 µM (inactive) | GI50 (NCI-H23): 684 nM (active) | GI50 (HL-60): 39.4 nM (active) | GI50 (OVCAR-5): 1.59 µM (inactive) | GI50 (DU-145): 1.88 µM (inactive) | GI50 (LOX IMVI): 423 nM (active) | GI50 (SK-MEL-5): 1.54 µM (inactive) | GI50 (OVCAR-4): 627 nM (active) | GI50 (MDA-MB-231): 397 nM (active) | GI50 (SN12C): 767 nM (active) | GI50 (HCT-116): 305 nM (active) | GI50 (SK-MEL-2): 1.63 µM (inactive) | GI50 (CAKI-1): 339 nM (active) | GI50 (OVCAR-8): 685 nM (active) | GI50 (M14): 458 nM (active) | GI50 (BT-549): 0.776 µM (active) | GI50 (MCF7): 302 nM (active) | GI50 (SF-539): 1.71 µM (inactive) | GI50 (HOP-92): 294 nM (active) | GI50 (UACC-257): 1.02 µM (active) | GI50 (CCRF-CEM): 66.2 nM (active) | GI50 (HT-29): 796 nM (active) | GI50 (PC-3): 1.51 µM (inactive) | GI50 (NCI-H522): 265 nM (active) | GI50 (T47D): 652 nM (active) | GI50 (SF-268): 1.86 µM (inactive) | GI50 (UACC-62): 1.38 µM (inactive) | GI50 (SNB-75): 2.06 µM (inactive)

Oc1ccccc1-c1n[nH]c(-c2ccccc2O)n1
GI50 (TK-10): 3270 nM (inactive) | GI50 (A498): 8.51 µM (inactive) | GI50 (Malme-3M): 2840 nM (inactive) | GI50 (HCT-15): 149 nM | GI50 (EKVX): 2.11 µM (inactive) | GI50 (NCI/ADR-RES): 2450 nM (inactive) | GI50 (ACHN): 2210 nM (inactive) | GI50 (MDA-N): > 100 µM (inactive) | GI50 (SK-OV-3): 3.15 µM (inactive) | GI50 (HCC 2998): 3.9 µM (inactive) | GI50 (COLO 205): 4250 nM (inactive) | GI50 (SF-295): 2.52 µM (inactive) | GI50 (RXF 393): 2230 nM (inactive) | GI50 (SR): 807 nM (active) | GI50 (Hs-578T): > 66.1 µM (inactive) | GI50 (UO-31): 5.25 µM (inactive) | GI50 (IGROV-1): 0.407 µM (active) | GI50 (A549): 2.21 µM (inactive) | GI50 (MOLT-4): 1240 nM (inactive) | GI50 (786-0): 4180 nM (inactive) | GI50 (HOP-62): 1.77 µM (inactive) | GI50 (NCI-H226): 4.38 µM (inactive) | GI50 (K562): 3640 nM (inactive) | GI50 (SW-620): 2550 nM (inactive) | GI50 (OVCAR-3): 280 nM (active) | GI50 (NCI-H460): 0.573 µM (active) | GI50 (RPMI-8226): 2440 nM (inactive) | GI50 (SK-MEL-28): > 100 µM (inactive) | GI50 (MDA-MB-435): > 100 µM (inactive) | GI50 (KM12): 1.49 µM (inactive) | GI50 (U-251): 3.25 µM (inactive) | GI50 (NCI-H23): 1710 nM (inactive) | GI50 (HL-60): 1270 nM (inactive) | GI50 (OVCAR-5): 7.11 µM (inactive) | GI50 (DU-145): 8.13 µM (inactive) | GI50 (LOX IMVI): 2060 nM (inactive) | GI50 (SK-MEL-5): 3.04 µM (inactive) | GI50 (OVCAR-4): 2360 nM (inactive) | GI50 (MDA-MB-231): 1440 nM (inactive) | GI50 (SN12C): 2170 nM (inactive) | GI50 (HCT-116): 1320 nM (inactive) | GI50 (SK-MEL-2): > 100 µM (inactive) | GI50 (CAKI-1): 3220 nM (inactive) | GI50 (OVCAR-8): 2720 nM (inactive) | GI50 (M14): 2380 nM (inactive) | GI50 (BT-549): > 100 µM (inactive) | GI50 (MCF7): 577 nM (active) | GI50 (SF-539): 4.84 µM (inactive) | GI50 (HOP-92): 1750 nM (inactive) | GI50 (CCRF-CEM): 1470 nM (inactive) | GI50 (HT-29): 3910 nM (inactive) | GI50 (PC-3): 2.24 µM (inactive) | GI50 (NCI-H522): 1640 nM (inactive) | GI50 (T47D): 2210 nM (inactive) | GI50 (SF-268): 3.05 µM (inactive) | GI50 (UACC-62): 7.59 µM (inactive) | GI50 (SNB-75): > 26.1 µM (inactive)
